What was measured:
[1] = biological target: immunoproteasome LMP7/B5i subunit (Homo sapiens, UniProt P28062); assay: Caliper-based proteasome enzymatic activity assay, LMP7; format: biochemical; settings: human recombinant immunoproteasome 0.3 nM, FAM peptide substrate 1 μM, rt 3 h
[2] = biological target: constitutive proteasome β5c subunit (Homo sapiens, UniProt P28074); assay: Caliper-based proteasome enzymatic activity assay, β5c; format: biochemical; settings: human recombinant constitutive proteasome 0.3 nM, FAM peptide substrate 1 μM, rt 3 h
[3] = biological target: immunoproteasome LMP2 subunit (Homo sapiens, UniProt P28065); assay: Caliper-based proteasome enzymatic activity assay, LMP2; format: biochemical; settings: human recombinant immunoproteasome 0.3 nM, FAM peptide substrate 1 μM, rt 2 h
PBMC LMP7 [4] = biological target: T1, PBMC LMP7 (Homo sapiens, UniProt P28062); assay: Inhibition of proteasome activity in cells (Proteasome-Glo), PBMC/LMP7; format: cell-based; settings: 2 h incubation at 37° C.
Protocol: (§1) The cell-based effects of a compound described herein on the immunoproteasome were determined by measuring inhibition of proteasome activity in cells using the Proteasome-Glo™ Cell-Based Reagent (Promega, Madison WI). The Proteasome-Glo™ assay contains a specific luminogenic proteasome substrate in a buffer optimized for cell permeabilization, proteasome activity, and luciferase activity. For the chymotrypsin-like activity (LMP7 and 05c), the peptide substrate is Suc-LLVY-aminoluciferin (Succinyl-leucine-leucine-valine-tyrosine-aminoluciferin). Cleavage of the substrate by proteasome results in luminescent signal which is proportional to the proteasome activity. The cell line THP-1 (a monocytic leukemia cell line enriched in immunoproteasome), the cell line HT-29 (a colorectal adenocarcinoma cell line enriched in constitutive proteasome), and primary human peripheral blood mononuclear cells (PBMC) were used to assess proteasome activity. Cells were seeded in a 96-well plate at 10,000 cells per well in RPMI 1640 high glucose medium with 10% fetal bovine serum (FBS). Compound dilutions were added to cells starting at a concentration of 5 uM and decreasing in tripling dilutions. The final DMSO concentration was 1%. The concentration range was adjusted as needed for compounds of different potencies. The cells treated with compounds were incubated for 2 h at 37° C. in 5% CO2. At the end of the 2 hour incubation period, cells were transferred to white 384 well assay plates. 20 uL of Proteasome-Glo™ Reagent was added to each well and incubated for 10 minutes at rt. The plate was read in the Analyst HT instrument (Molecular Devices, Sunnyvale, CA) using luminescence mode. The percent inhibition of activity was plotted as a function of log compound concentration. The IC50 was then calculated for each compound using Prism software from GraphPad Software Inc. (San Diego, CA).

PBMC LMP2 [5] = biological target: T2, PBMC LMP2 (Homo sapiens, UniProt P28065); assay: Inhibition of proteasome activity in cells (Proteasome-Glo), PBMC/LMP2; format: cell-based; settings: 2 h incubation at 37° C.
Protocol: as §1

Th1/17 differentiation = settings: cited from earlier work
[6] = test system: production of proinflammatory cytokines (IL-6, TNF-α, IL-23); settings: cited from earlier work
[7] = test system: murine collagen-induced arthritis; settings: mouse, in vivo; cited from earlier work
MRL/lpr lupus model = settings: cited from earlier work
[8] = test system: murine DSS-induced colitis model; settings: cited from earlier work
[9] = test system: Hashimoto's thyroiditis model; settings: mouse, in vivo; cited from earlier work
[10] = test system: multiple myeloma cell lines and primary patient tumor cells; settings: cited from earlier work
HT29 β5c [11] = biological target: T3, HT29 β5c (Homo sapiens, UniProt P28074); assay: Inhibition of proteasome activity in cells (Proteasome-Glo), HT29/β5c; format: cell-based; settings: HT-29 cells, 2 h incubation at 37° C.
Protocol: as §1, with “Compound dilutions were added to cells starting at a concentration of 5 uM and decreasing in tripling dilutions. The final DMSO concentration was 1%. The concentration range was adjusted as needed for compounds of different potencies. The cells treated with compounds were incubated for 2 h at 37° C. in 5% CO2. At the end of the 2 hour incubation period, cells were transferred to white 384 well assay plates. 20 uL of Proteasome-Glo™ Reagent was added to each well and incubated for 10 minutes at rt.” left out, “The percent inhibition of activity was plotted as a function of log compound concentration.” left out

PBMC LMP7 [12] = biological target: T1, PBMC LMP7; assay: Durability of binding in cells (wash-out, Proteasome-Glo), PBMC LMP7; format: cell-based
Protocol: (§2) The durability of binding of proteasome inhibitors was assessed in cells using wash-out assays and the Proteasome-Glo™ Reagent kit. THP-1 cells, HT-29 cells, or PBMC were incubated with an 8-fold dilution series of inhibitor for 2 h. Following 2 h of incubation, cells were washed using 3 occasions of centrifugation followed by resuspension in culture medium. Following inhibitor washout, cells were returned to culture for either 30 minutes, 4 h, or 18 h. Cells were then transferred to white 384 plates, and 20 uL of Proteasome-Glo™ Reagent was added to each well for 10 minutes. Plates were then read on an Analyst HT plate reader using luminescence mode. The percent inhibition of activity was plotted as a function of log compound concentration. The IC50 was then calculated for each compound using Prism software from GraphPad.

HT29 β5c [13] = biological target: T3, HT29 β5c; assay: Durability of binding in cells (wash-out, Proteasome-Glo), HT29 β5c; format: cell-based
Protocol: as §2

PBMC LMP2 [14] = biological target: T2, PBMC LMP2; assay: Durability of binding in cells (wash-out, Proteasome-Glo), PBMC LMP2; format: cell-based
Protocol: as §2

prostate PC-3 cell line = settings: cited from earlier work
tumor growth = settings: mouse; cited from earlier work

Row | SMILES | IC50 [1] | IC50 [2] | IC50 [3] | IC50 (PBMC LMP7 [4]) | IC50 (PBMC LMP2 [5]) | also measured
1 | N#CC(=Cc1cccc(OCCC(=O)N[C@@H](Cc2ccccc2)B(O)O)c1)c1ccccn1 [Example 6, (R)-(1-(3-(3-(2-cyano-2-(pyridin-2-yl)vinyl)phenoxy)propanamido)-2-phenylethyl)boronic Acid] | 8 nM | 89 nM | 84 nM | 7 nM | > 5 µM | –
2 | COc1ccc(C[C@H](NC(=O)[C@H](C)NC(=O)CN2CCOCC2)C(=O)N[C@@H](Cc2ccccc2)C(=O)[C@@]2(C)CO2)cc1 [PR-957] | – | – | – | – | – | human and mouse Th1/17 differentiation (Th1/17 differentiation): potently block; B cell effector functions and production of proinflammatory cytokines (IL-6, TNF-α, IL-23) [6]: potently block; disease activity in murine collagen-induced arthritis [7]: significantly inhibit disease activity; plasma cell numbers and anti-dsDNA IgG levels (MRL/lpr lupus model): reduced plasma cell numbers and anti-dsDNA IgG levels; inflammation and tissue destruction [8]: reduced inflammation and tissue destruction; efficacy in autoantibody-driven Hashimoto's thyroiditis model [9]: efficacious
3 | CN(C)C(=O)C(C#N)=Cc1cccc(CCOC(=O)N[C@@H](Cc2ccccc2)B(O)O)c1 [Example 17, (R)-(1-(((3-(2-cyano-3-(dimethylamino)-3-oxoprop-1-en-1-yl)phenethoxy)carbonyl)amino)-2-phenylethyl)boronic Acid] | 8 nM | 1310 nM | > 5000 nM | 9 nM | > 5 µM | –
4 | CC(C)(C)NC(=O)C(C#N)=Cc1cccc(OCCC(=O)N[C@@H](CCc2ccccc2)B(O)O)c1 [Example 11, (R)-1-(3-(3-(3-(tert-butylamino)-2-cyano-3-oxoprop-1-enyl)phenoxy)propanamido)-3-phenylpropylboronic Acid] | 2 nM | 310 nM | > 5000 nM | 3 nM | > 5 µM | –
5 | CNC(=O)C(C#N)=Cc1cccc(OCCC(=O)N[C@@H](Cc2ccccc2)B(O)O)c1 [Example 20, (R)-(1-(3-(3-(2-cyano-3-(methylamino)-3-oxoprop-1-en-1-yl)phenoxy)propanamido)-2-phenylethyl)boronic Acid] | 3 nM | 32 nM | 120 nM | 34 nM | > 5 µM | –
6 | CC(C)(C)NC(=O)C(C#N)=Cc1cccc(OCCC(=O)N[C@@H](Cc2coc3ccccc23)B(O)O)c1 [Example 14, (R)-(2-(benzofuran-3-yl)-1-(3-(3-(3-(tert-butylamino)-2-cyano-3-oxoprop-1-en-1-yl)phenoxy)propanamido)ethyl)boronic Acid] | 0.2 nM | 4 nM | 3240 nM | 2 nM | 0.51 µM | –
7 | CC1=C(C(=O)N[C@H](C)C(=O)N[C@@H](Cc2c[nH]c3ccccc23)C(=O)N[C@@H](Cc2ccccc2)C(=O)[C@@]2(C)CO2)Cc2ccccc21 [PR-924] | – | – | – | – | – | growth of multiple myeloma cell lines and primary patient tumor cells [10]: inhibit growth
8 | CC(C)(C)NC(=O)C(C#N)=Cc1cccc(OCCC(=O)N[C@@H](Cc2ccccc2)B(O)O)c1 [Example 2, (R)-(1-(3-(3-(3-(tert-butylamino)-2-cyano-3-oxoprop-1-en-1-yl)phenoxy)propanamido)-2-phenylethyl)boronic Acid] | 3 nM | 66 nM | 160 nM | 5 nM | 3.82 µM | IC50 (HT29 β5c [11]): 73 nM; IC50 (PBMC LMP7 [12]; 30 min after inhibitor washout): 5 nM; IC50 (PBMC LMP7 [12]; 4 hr after inhibitor washout): 10 nM; IC50 (PBMC LMP7 [12]; 18 hr after inhibitor washout): 126 nM; IC50 (HT29 β5c [13]; 30 min after inhibitor washout): 109 nM; IC50 (HT29 β5c [13]; 4 hr after inhibitor washout): > 5000 nM; IC50 (HT29 β5c [13]; 18 hr after inhibitor washout): > 5000 nM; IC50 (PBMC LMP2 [14]; 4 hr after inhibitor washout): > 5 µM; IC50 (PBMC LMP2 [14]; 18 hr after inhibitor washout): > 5 µM
9 | CN1CCN(C(=O)C(C#N)=Cc2cccc(OCCC(=O)N[C@@H](Cc3ccccc3)B(O)O)c2)CC1 [Example 19, (R)-(1-(3-(3-(2-cyano-3-(4-methylpiperazin-1-yl)-3-oxoprop-1-en-1-yl)phenoxy)propanamido)-2-phenylethyl)boronic Acid] | 11 nM | 43 nM | 170 nM | 67 nM | > 5 µM | –
10 | CN(C)C(=O)C(C#N)=Cc1cccc(COC(=O)N[C@@H](Cc2ccccc2)B(O)O)c1 [Example 15, (R)-(1-((((3-(2-cyano-3-(dimethylamino)-3-oxoprop-1-en-1-yl)benzyl)oxy)carbonyl)amino)-2-phenylethyl)boronic Acid] | 8 nM | 3240 nM | 2920 nM | 18 nM | > 5 µM | –
11 | CCCCCCC(=O)N[C@@H](C)C(=O)N[C@@H](CC(C)C)C(=O)[C@@]1(CO[Si](C)(C)C(C)(C)C)CO1 [UK-101] | – | – | – | – | – | apoptosis of prostate PC-3 cell line in vitro (prostate PC-3 cell line): induced apoptosis; tumor growth in vivo (tumor growth): significantly suppressed tumor growth

Reference: patent US12024531B2, “Immunoproteasome inhibitors” (Principia Biopharma Inc., priority 2017, dated 2024)
